≈ marks a conversion by molar mass, not a printed value.
Assays:
Influenza A virus [1] = assay: Antiviral activity against influenza A virus A/WSN/33 (H1N1) infected in dog MDCK cells assessed as reduction in virus induced cytopathic effect measured after 48 hrs by crystal violet staining based assay; assay type: functional, organism-based
Influenza A virus [2] = assay: Antiviral activity against Influenza virus H3N2 (A/Hong Kong/8/68) infected in dog MDCK cells assessed as reduction in virus induced cytopathic effect measured after 48 hrs by crystal violet staining based assay; assay type: functional, organism-based
[3] = Cytotoxicity against dog MDCK cells assessed as reduction in cell viability incubated for 72 hrs by CCK-8 assay; assay type: toxicity, cell-based, Canis lupus familiaris
[4] = Cytotoxicity against African green monkey Vero E6 cells assessed as reduction in cell viability by Cell titer-Glo luminescent assay; assay type: toxicity, cell-based; details: chlorocebus sabaeus
SARS-CoV-2 = assay: Antiviral activity against SARS CoV-2 Omicron B1.1.529 infected in Vero E6 cells at 0.02 MOI assessed as reduction in viral RNA growth incubated for 24 hrs by qRT-PCR analysis; assay type: functional, organism-based; details: Severe acute respiratory syndrome coronavirus 2, Omicron B1.1.529, Vero C1008, 24 h
Human betaherpesvirus 5 = assay: Antiviral activity against HCMV; assay type: functional, organism-based
[5] = Cytotoxicity against human HEL 299 cells; assay type: toxicity, cell-based
Human alphaherpesvirus 1 = assay: Antiviral activity against HSV-1; assay type: functional, organism-based
Human alphaherpesvirus 2 = assay: Antiviral activity against HSV-2; assay type: functional, organism-based
Ebolavirus = assay: Antiviral activity against Ebola virus infected in Vero E6 cells assessed as virus-induced cytopathic effect incubated for 3 days by CPE assay; assay type: functional, organism-based; details: Orthoebolavirus, Vero C1008, 72 h
[6] = Cytotoxicity against African green monkey Vero E6 cells assessed as reduction in cell growth; assay type: toxicity, cell-based; details: chlorocebus sabaeus
Human coronavirus OC43 = assay: Antiviral activity against Human coronavirus OC43 infected in Vero cells assessed as reduction in viral replication pre-incubated with virus for 1 hr followed by washout and compound treatment and measured after 3 days by qRT-PCR analysis; assay type: functional, organism-based; details: Betacoronavirus 1, Vero
[7] = Cytotoxicity against African green monkey Vero cells; assay type: toxicity, cell-based; details: chlorocebus sabaeus
SARS-CoV [8] = assay: Antiviral activity against SARS-CoV Frankfurt-1 infected in Vero E6 cells assessed as reduction in viral replication; assay type: functional, organism-based; details: Severe acute respiratory syndrome-related coronavirus, Frankfurt-1, Vero C1008
SARS-CoV [9] = assay: Antiviral activity against SARS-CoV HKU39849 infected in Vero E6 cells assessed as reduction in viral replication; assay type: functional, organism-based; details: Severe acute respiratory syndrome-related coronavirus, HKU39849, Vero C1008
[10] = Cytotoxicity against African green monkey Vero E6 cells assessed as reduction in cell viability measured after 72 hrs by WST-1 assay; assay type: toxicity, cell-based, Vero C1008; details: chlorocebus sabaeus
Human alphaherpesvirus 3 [11] = assay: Antiviral activity against Varicella zoster virus infected in human HEL cells assessed as inhibition of plaque formation measured for 3 days; assay type: functional, organism-based; details: Human alphaherpesvirus 3, HEL, 72 h
HMEC-1 = assay: Cytotoxicity against human HMEC-1 cells assessed as reduction in cell growth incubated for 24 hrs; assay type: functional
Hepatitis C virus [12] = assay: Antiviral activity against Hepatitis C virus infected in human Huh-7 cells assessed as reduction in viral infection incubated for 72 hrs by qRT-PCR analysis; assay type: functional, organism-based, Hepacivirus hominis; details: Huh-7, 72 h
Human alphaherpesvirus 3 [13] = assay: Antiviral activity against Varicella zoster virus infected in human HEL cells assessed as reduction in plaque formation incubated for 72 hrs; assay type: functional, organism-based; details: Human alphaherpesvirus 3, HEL
[14] = Cytotoxicity against human HEL cells; assay type: toxicity, cell-based
HEL = assay: Cytotoxicity against human HEL cells assessed as reduction in cell viability incubated for 24 hrs by MTT assay; assay type: functional
SARS-CoV [15] = assay: Antiviral activity against SARS-CoV Urbani infected in Vero E6 cells at 0.01 to 0.025 MOI assessed as inhibition of virus induced cytopathic effect; assay type: functional, organism-based; details: Severe acute respiratory syndrome-related coronavirus, Vero C1008
[16] = Cytotoxicity against African green monkey Vero E6 cells assessed as reduction in cell viability by neutral red uptake assay; assay type: toxicity, cell-based, Vero C1008; details: chlorocebus sabaeus
[17] = molecular target: RNA-directed RNA polymerase (Hepacivirus hominis, UniProt O39930); assay: Inhibition of Hepatitis C virus NS5B polymerase
Hepatitis C virus [18] = assay: Antiviral activity against Hepatitis C virus infected in Vero E6 cells assessed as virus induced cytopathic effect; assay type: functional, organism-based, Hepacivirus hominis; details: Vero C1008
[19] = molecular target: Replicase polyprotein 1ab (Severe acute respiratory syndrome coronavirus 2, UniProt P0DTD1); assay: Inhibition of C-terminal SARS-CoV-2 nsp14 N7-methyltransferase activity incubated for 30 mins in presence of SAM by Liquid scintillation analysis

Chain of RNA-directed RNA polymerase (O39930 whole entry): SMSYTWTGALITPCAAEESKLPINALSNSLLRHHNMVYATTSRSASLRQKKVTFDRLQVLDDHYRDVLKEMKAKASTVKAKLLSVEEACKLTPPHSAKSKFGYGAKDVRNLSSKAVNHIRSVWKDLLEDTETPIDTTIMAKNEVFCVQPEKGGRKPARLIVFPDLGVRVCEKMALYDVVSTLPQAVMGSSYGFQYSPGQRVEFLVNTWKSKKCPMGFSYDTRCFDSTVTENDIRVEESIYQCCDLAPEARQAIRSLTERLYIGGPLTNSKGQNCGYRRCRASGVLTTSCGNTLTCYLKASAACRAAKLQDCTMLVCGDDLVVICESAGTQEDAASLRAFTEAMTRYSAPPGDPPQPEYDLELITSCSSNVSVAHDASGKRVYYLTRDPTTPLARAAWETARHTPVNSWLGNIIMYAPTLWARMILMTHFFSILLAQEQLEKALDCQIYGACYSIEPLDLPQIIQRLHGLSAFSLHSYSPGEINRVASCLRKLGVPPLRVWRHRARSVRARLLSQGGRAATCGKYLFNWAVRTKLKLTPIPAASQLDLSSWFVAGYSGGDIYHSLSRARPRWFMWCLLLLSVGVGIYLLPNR

## Cc1ncnc2c1c(/C=C/c1cccs1)cn2[C@@H]1O[C@H](CO)[C@@H](O)[C@@]1(C)F
Influenza A virus [1]
  EC50: 3.95 µM
Influenza A virus [2]
  EC50: 3.61 µM
[3]
  CC50 at 72 h: > 100 µM

## CCC(CC)COC(=O)[C@H](C)N[P@](=O)(OC[C@H]1O[C@@](C#N)(c2ccc3c(N)ncnn23)[C@H](O)[C@@H]1O)Oc1ccccc1 [REMDESIVIR]
[4]
  CC50: > 100 µM
SARS-CoV-2
  EC50: 0.981 µM

## OC[C@H]1O[C@@H](n2cnc3c(N[C@@H]4CCOC4)ncnc32)[C@H](O)[C@@H]1O [TECADENOSON]
[4]
  CC50: > 100 µM
SARS-CoV-2
  EC50: 1.13 µM

## O[C@@H]1[C@H](O)[C@H](O)CO[C@H]1Cn1c(Br)nc2cc(Cl)c(Cl)cc21
Human betaherpesvirus 5
  EC50: 1.4 µM

## Nc1nc2c(ncn2C[Se]CCO)c(=O)[nH]1
[5]
  CC50: > 100 µM
Human alphaherpesvirus 1
  EC50: 1.47 µM
Human alphaherpesvirus 2
  EC50: 6.34 µM

## Nc1nccc2c1ncn2[C@@H]1C[C@H](CO)[C@@H](O)[C@H]1O [3-DEAZAARISTEROMYCIN A]
Ebolavirus
  EC50: 2 µM
[6]
  CC50: > 100 µM

## Nc1ncnc2c1ncn2[C@@H]1O[C@H](CO)[C@@H](O)[C@@H]1O [VIDARABINE]
[4]
  CC50: > 100 µM
SARS-CoV-2
  EC50: 0.251 µM

## Cc1nc(N)c2c(C(N)=O)cc([C@@H]3O[C@H](CO)[C@@H](O)[C@H]3O)n2n1
Human coronavirus OC43
  EC50: 0.65 µM
[7]
  CC50: 45 µM

## NC(=O)c1ncn([C@@H]2O[C@H](CO)[C@@H](O)[C@H]2O)n1 [RIBAVIRIN]
SARS-CoV [8]
  EC50: 20 mg/L (≈ 81.9 µM)
SARS-CoV [9]
  EC50: 80 mg/L (≈ 328 µM)
[10]
  CC50 at 72 h: > 200 mg/L

## C#CCn1c(=O)n(C(=O)c2ccccc2F)c(=O)c2ccccc21
Human alphaherpesvirus 3 [11]
  EC50: 2.8 µM
HMEC-1
  CC50: > 100 µM

## CC(C)OC(=O)[C@H](C)N[P@](=O)(OC[C@H]1O[C@@H](n2ccc(=O)[nH]c2=O)[C@](C)(F)[C@@H]1O)Oc1ccccc1 [SOFOSBUVIR]
Hepatitis C virus [12]
  EC50: 0.092 µM

## O=c1nc2oc(CCCCCCCCCI)cc2cn1[C@H]1C[C@H](O)[C@@H](CO)O1
Human alphaherpesvirus 3 [13]
  EC50: 0.034 µM
[14]
  CC50: > 200 µM

## O=c1nc2c(cn1[C@H]1C[C@H](O)[C@@H](CO)O1)Oc1ccccc1N2
HEL
  CC50: > 100 µM

## O=c1nc2oc(CCCCCCCCCCl)cc2cn1[C@H]1C[C@H](O)[C@@H](CO)O1
Human alphaherpesvirus 3 [13]
  EC50: 0.012 µM
[14]
  CC50: 200 µM

## C#Cc1c(C(N)=O)ncn1[C@@H]1O[C@H](CO)[C@@H](O)[C@H]1O
SARS-CoV [15]
  EC50: > 40 µM
[16]
  CC50: > 40 µM

## Nc1nc2c(ncn2C[Se]C(CO)CO)c(=O)[nH]1
[5]
  CC50: > 100 µM
Human betaherpesvirus 5
  EC50: 53.1 µM

## O=c1c2ccccc2n(Cc2cn(CCCOCc3ccccc3)nn2)c(=O)n1Cc1ccccc1
Human alphaherpesvirus 3 [11]
  EC50: > 20 µM

## O=c1nc(NO)ccn1[C@@H]1O[C@H](CO)[C@@H](O)[C@H]1O [N-HYDROXYCYTIDINE]
[17]
  IC50: 50 µM
Hepatitis C virus [18]
  EC50: 5 µM

## Cc1ncnc2c1c(/C=C/c1ccccn1)cn2[C@@H]1O[C@H](CO)[C@@H](O)[C@@]1(C)F
Influenza A virus [1]
  EC50: 5.88 µM
Influenza A virus [2]
  EC50: 6.95 µM
[3]
  CC50 at 72 h: > 100 µM

## C#CCn1c(=O)n(C(=O)c2ccccc2)c(=O)c2ccccc21
Human alphaherpesvirus 3 [11]
  EC50: 5.4 µM
HMEC-1
  CC50: 11.2 µM

## Nc1ncnc2c1c(C#Cc1cnc3ccccc3c1)cn2[C@@H]1O[C@H](CSCC[C@H](N)C(=O)O)[C@@H](O)[C@H]1O
[19]
  IC50: 0.003 µM
